According to patent US20230140216A1, “COMBINATION THERAPY FOR TREATING MPS1” (GAIN THERAPEUTICS SA, priority 2020, published 2023):

Biological target: T1, Recombinant human α-L-iduronidase protein (Homo sapiens, UniProt P35475)
T1 construct: purchased R&D
T1 sequence (P35475 28-653): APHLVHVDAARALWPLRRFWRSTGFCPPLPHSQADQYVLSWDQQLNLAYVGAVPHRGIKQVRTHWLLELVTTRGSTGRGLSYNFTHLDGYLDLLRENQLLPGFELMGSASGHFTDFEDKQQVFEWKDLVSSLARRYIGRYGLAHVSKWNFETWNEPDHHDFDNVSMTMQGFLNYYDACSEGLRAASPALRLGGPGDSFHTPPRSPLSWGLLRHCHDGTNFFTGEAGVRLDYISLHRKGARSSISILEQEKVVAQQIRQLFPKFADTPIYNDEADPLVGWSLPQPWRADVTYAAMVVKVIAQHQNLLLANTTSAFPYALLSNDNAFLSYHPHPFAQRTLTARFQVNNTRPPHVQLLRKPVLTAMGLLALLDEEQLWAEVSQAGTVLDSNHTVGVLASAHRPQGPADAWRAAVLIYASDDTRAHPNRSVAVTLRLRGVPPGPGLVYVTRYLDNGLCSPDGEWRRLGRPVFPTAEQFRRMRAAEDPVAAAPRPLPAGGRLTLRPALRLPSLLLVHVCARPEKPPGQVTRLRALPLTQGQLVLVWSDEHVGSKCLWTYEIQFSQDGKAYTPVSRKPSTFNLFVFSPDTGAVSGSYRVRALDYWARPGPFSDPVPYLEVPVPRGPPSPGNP
Assay: Differential scanning fluorimetry (DSF) thermal stabilization;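 note: Classes count stabilization of α-L-iduronidase despite the GALC label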
Type: binding
Details: ΔTm class
Procedure: The capacity of Compounds of the Disclosure to stabilize α-L-iduronidase was assessed by differential scanning fluorimetry technique. The thermal denaturation of purified human native enzyme was monitored in the presence of the extrinsic fluorescent probe SYPRO Orange (Sigma-Aldrich, St. Louis, MO). The tested compounds were dissolved in 100% DMSO and diluted into the protein buffer to achieve final concentrations of 1% DMSO.
Recombinant human α-L-iduronidase protein (purchased from R&D) 12.5 µL of 1.5 µM in 100 mM Hepes 20 mM MgCl2 pH 7 (protein final concentration 0.75 µM) with Sypro Orange 10X and 12.5 µl of the different compound solutions were dispensed into 96-well PCR-plates. The intensity of SYPRO Orange fluorescence after a systematic increase of temperature was monitored in the Roche LightCycler® 480 II device (Roche Diagnostics).
The capacity to stabilize α-L-iduronidase is denoted as follows: • ΔTm GALC > 1 is shown as A; • ΔTm GALC between 0.5 and 1 is shown as B; • ΔTm GALC between 0.1 and 0.5 is shown as C; and • ΔTm GALC less than 0.1 is shown as D.

[1] = commercially available Examples 8-37

Structure (SMILES)	DSF Activity range (synthetized Examples 38-94)	DSF Activity range [1]	further results
COc1ccccc1-n1ncc2c(O)nc(CN(C)CC(=O)N(C)c3ccccc3Cl)nc21 [Example 5, N-(2-chlorophenyl)-2-(((4-hydroxy-1-(2-methoxyphenyl)-1H-pyrazolo[3,4-d]pyrimidin-6-yl)methyl)(methyl)amino)-N-methylacetamide]	–	–	DSF Activity range (synthetized Examples 1-7): D (ΔTm GALC less than 0.1 is shown as D)
Cc1cc2nc(CN(C)CC(=O)N3Cc4ccccc4C3)[nH]c(=O)c2s1 [Example 53]	B (ΔTm GALC between 0.5 and 1 is shown as B)	–	–
Cc1ccc(NC(=O)CN(C)Cc2nc3c(cnn3C)c(=O)[nH]2)cc1 [Example 31, 2-(methyl((1-methyl-4-oxo-4,5-dihydro-1H-pyrazolo[3,4-d]pyrimidin-6-yl)methyl)amino)-N-(p-tolyl)acetamide]	–	C (ΔTm GALC between 0.1 and 0.5 is shown as C)	–
Cc1ccc2nc(CN(C)CC(=O)N(C)c3ccccc3Cl)[nH]c(=O)c2c1 [Example 66]	B (ΔTm GALC between 0.5 and 1 is shown as B)	–	–
CCN(CC(=O)N(C)c1ccccc1Cl)Cc1nc2c(C)csc2c(=O)[nH]1 [Example 42]	C (ΔTm GALC between 0.1 and 0.5 is shown as C)	–	–
CN(CC(=O)Nc1cccc2ncccc12)Cc1nc2ccccc2c(=O)[nH]1 [Example 21, 2-(methyl((4-oxo-3,4-dihydroquinazolin-2-yl)methyl)amino)-N-(quinolin-5-yl)acetamide]	–	B (ΔTm GALC between 0.5 and 1 is shown as B)	–
Cc1ccc2c(=O)[nH]c(CN(C)CC(=O)N(C)c3cccc(F)c3)nc2c1 [Example 87, 2-(N-((3,4-dihydro-7-methyl-4-oxoquinazolin-2-yl)methyl)-N-methylamino)-N-(3-fluorophenyl)-N-methylacetamide]	D (ΔTm GALC less than 0.1 is shown as D)	–	–
CN(CC(=O)N(C)c1ccccc1Cl)Cc1nc2cc(F)ccc2c(=O)[nH]1 [Example 63]	B (ΔTm GALC between 0.5 and 1 is shown as B)	–	–
CN(CC(=O)N(C)c1ccccc1)Cc1nc2ccccc2c(=O)[nH]1 [Example 27, N-methyl-2-(methyl((4-oxo-3,4-dihydroquinazolin-2-yl)methyl)amino)-N-phenylacetamide]	–	B (ΔTm GALC between 0.5 and 1 is shown as B)	–
CN(CC(=O)N(C)C1CCCCC1)Cc1nc2c(cnn2C)c(=O)[nH]1 [Example 37, N-cyclohexyl-N-methyl-2-(methyl((1-methyl-4-oxo-4,5-dihydro-1H-pyrazolo[3,4-d]pyrimidin-6-yl)methyl)amino)acetamide]	–	B (ΔTm GALC between 0.5 and 1 is shown as B)	–
CCN(CC(=O)Nc1cccc(OC)c1)Cc1nc2ccsc2c(=O)[nH]1 [Example 10, 2-(ethyl((4-oxo-3,4-dihydrothieno[3,2-d]pyrimidin-2-yl)methyl)amino)-N-(3-methoxyphenyl)acetamide]	–	C (ΔTm GALC between 0.1 and 0.5 is shown as C)	–
CN(CC(=O)N(C)c1cccc(F)c1)Cc1nc2c(cnn2C)c(=O)[nH]1 [Example 94]	B (ΔTm GALC between 0.5 and 1 is shown as B)	–	–
Cc1csc(N(C)C(=O)CN(C)Cc2nc3cc(F)ccc3c(=O)[nH]2)n1 [Example 68]	C (ΔTm GALC between 0.1 and 0.5 is shown as C)	–	–
CN(CC(=O)N(C)c1ccccc1Cl)Cc1nc2c(cnn2C)c(=O)[nH]1 [Example 92]	B (ΔTm GALC between 0.5 and 1 is shown as B)	–	–
Cc1ccc2nc(CN(C)CC(=O)N(C)c3cccc(F)c3)[nH]c(=O)c2c1 [Example 82]	B (ΔTm GALC between 0.5 and 1 is shown as B)	–	–
CN(CC(=O)N(C)C)Cc1nc2c(cnn2C)c(=O)[nH]1 [Example 36, N,N-dimethyl-2-(methyl((1-methyl-4-oxo-4,5-dihydro-1H-pyrazolo[3,4-d]pyrimidin-6-yl)methyl)amino)acetamide]	–	B (ΔTm GALC between 0.5 and 1 is shown as B)	–
CCCN(CC(=O)N(C)c1ccccc1Cl)Cc1nc2c(C)csc2c(=O)[nH]1 [Example 44]	B (ΔTm GALC between 0.5 and 1 is shown as B)	–	–
CCCN(CC(=O)N(C)c1ccccc1Cl)Cc1nc2cc(C)ccc2c(=O)[nH]1 [Example 85]	B (ΔTm GALC between 0.5 and 1 is shown as B)	–	–

Structure (SMILES)	DSF Activity range (synthetized Examples 38-94)	DSF Activity range [1]	further results
Cc1ccc(-n2ncc3c(O)nc(CN(C)CC(=O)N(C)c4ccccc4Cl)nc32)cc1 [Example 4, N-(2-chlorophenyl)-2-(((4-hydroxy-1-p-tolyl-1H-pyrazolo[3,4-d]pyrimidin-6-yl)methyl)(methyl)amino)-N-methylacetamide]	–	–	DSF Activity range (synthetized Examples 1-7): B (ΔTm GALC between 0.5 and 1 is shown as B)
CN(CC(=O)N(C)c1ccc(Cl)c(Cl)c1)Cc1nc2cc(F)ccc2c(=O)[nH]1 [Example 75]	B (ΔTm GALC between 0.5 and 1 is shown as B)	–	–
CN(C(=O)CN(Cc1nc2ccc(F)cc2c(=O)[nH]1)C1CC1)c1ccccc1Cl [Example 61]	D (ΔTm GALC less than 0.1 is shown as D)	–	–
CN(CC(=O)N1CCCC1)Cc1nc2c(cnn2C)c(=O)[nH]1 [Example 35, 1-methyl-6-((methyl(2-oxo-2-(pyrrolidin-1-yl)ethyl)amino)methyl)-1,5-dihydro-4H-pyrazolo[3,4-d]pyrimidin-4-one]	–	B (ΔTm GALC between 0.5 and 1 is shown as B)	–
Cc1ccc2c(=O)[nH]c(CN(C)CC(=O)N(C)c3ccc(Cl)c(Cl)c3)nc2c1 [Example 88, 2-(N-((3,4-dihydro-7-methyl-4-oxoquinazolin-2-yl)methyl)-N-methylamino)-N-(3,4-dichlorophenyl)-N-methylacetamide]	B (ΔTm GALC between 0.5 and 1 is shown as B)	–	–
CCN(CC(=O)Nc1ccccc1C)Cc1nc2ccccc2c(=O)[nH]1 [Example 20, 2-(ethyl((4-oxo-3,4-dihydroquinazolin-2-yl)methyl)amino)-N-(o-tolyl)acetamide]	–	B (ΔTm GALC between 0.5 and 1 is shown as B)	–
CCN(CC(=O)NC(C)(C)C)Cc1nc2ccsc2c(=O)[nH]1 [Example 13, N-(tert-butyl)-2-(ethyl((4-oxo-3,4-dihydrothieno[3,2-d]pyrimidin-2-yl)methyl)amino)acetamide]	–	D (ΔTm GALC less than 0.1 is shown as D)	–
Cc1csc(NC(=O)CN(C)Cc2nc3ccsc3c(=O)[nH]2)n1 [Example 14, 2-(methyl((4-oxo-3,4-dihydrothieno[3,2-d]pyrimidin-2-yl)methyl)amino)-N-(4-methylthiazol-2-yl)acetamide]	–	A (ΔTm GALC > 1 is shown as A)	–
Cc1ccc2nc(CN(CC(=O)N(C)c3ccccc3Cl)C3CC3)[nH]c(=O)c2c1 [Example 78, 2-(N-cyclopropyl-N-((3,4-dihydro-6-methyl-4-oxoquinazolin-2-yl)methyl)amino)-N-(2-chlorophenyl)-N-methylacetamide]	D (ΔTm GALC less than 0.1 is shown as D)	–	–
CCCN(CC(=O)N(C)c1ccccc1Cl)Cc1nc2ccc(F)cc2c(=O)[nH]1 [Example 62]	B (ΔTm GALC between 0.5 and 1 is shown as B)	–	–
Cc1ccc2nc(CN(C)CC(=O)N(C)c3ccc(Cl)c(Cl)c3)[nH]c(=O)c2c1 [Example 89, 2-(N-((3,4-dihydro-6-methyl-4-oxoquinazolin-2-yl)methyl)-N-methylamino)-N-(3,4-dichlorophenyl)-N-methylacetamide]	B (ΔTm GALC between 0.5 and 1 is shown as B)	–	–
Cc1cc2nc(CN(CC(=O)N(C)c3ccccc3Cl)C3CC3)[nH]c(=O)c2s1 [Example 47]	D (ΔTm GALC less than 0.1 is shown as D)	–	–
CN(C(=O)CN(Cc1nc2cc(F)ccc2c(=O)[nH]1)C1CC1)c1ccccc1Cl [Example 65]	D (ΔTm GALC less than 0.1 is shown as D)	–	–
CN(CC(=O)N1Cc2ccccc2C1)Cc1nc2ccc(F)cc2c(=O)[nH]1 [Example 56, 6-fluoro-2-(((2-(isoindolin-2-yl)-2-oxoethyl)(methyl)amino)methyl)quinazolin-4(3H)-one]	A (ΔTm GALC > 1 is shown as A)	–	–
Cc1csc2c(=O)[nH]c(CN(C)CC(=O)N(C)c3ccccc3Cl)nc12 [Example 41]	C (ΔTm GALC between 0.1 and 0.5 is shown as C)	–	–
CCN(CC(=O)Nc1c(Cl)cccc1Cl)Cc1nc2ccccc2c(=O)[nH]1 [Example 16, N-(2,6-dichlorophenyl)-2-(ethyl((4-oxo-3,4-dihydroquinazolin-2-yl)methyl)amino)acetamide]	–	B (ΔTm GALC between 0.5 and 1 is shown as B)	–
CN(CC(=O)N(C)c1ccccc1Cl)Cc1nc2ccc(F)cc2c(=O)[nH]1 [Example 59]	B (ΔTm GALC between 0.5 and 1 is shown as B)	–	–
